Source: patent publication US20100003217A1, “Compounds and Pharmaceutical Compositions for the Treatment of Viral Infections” (priority 2008, published 2010)
Read-outs that look alike come from different tables or passages of the source.

Assay: Metabolite profile in rat liver
Format: in vivo, male Sprague-Dawley rats
Settings: for Percent of Dose, Liver 24 h: after [14C]Compound 1; for concentration at 2 h / concentration at 6 h / concentration at 24 h: male, Sprague-Dawley, rat, liver
Experimental: Homogenates were prepared on dry ice in 70% methanol-30% water containing 20 mM EDTA and 20 mM EGTA (about 1× (w/v) weight of the liver) and were stored frozen. Pooled liver samples were prepared for all groups by combining a fixed percentage of the total weight of each individual animal sample homogenate for each group. Each pooled liver homogenate (3.77-5.02 g) was placed in a 50-mL polypropylene centrifuge tube and 16.0 mL of methanol:water (70:30) was added. The sample was vortexed for one minute, and then centrifuged at 11200×g for 20 minutes. The supernatant was transferred to a tube and total volume was measured. The extraction procedure was repeated three additional times. Radioactivity of each supernatant was determined by LSC of duplicate aliquots (100 μL each) for extraction recovery. Subsamples of all four extracts from each sample were taken for proportionate pooling. For Group 1, the subsamples were pooled before concentration and, for Group 2, each subsample was concentrated separately and then pooled due to the larger volumes involved. Each extract was completely dried or reduced to approximately 100 μL. Reconstitution was accomplished with methanol (20 μL) and sufficient volume of the aqueous mobile phase of HPLC method 2 such that the total volume of each reconstituted sample was 500 μL. Duplicate aliquots of the reconstituted samples were analyzed by LSC. Each sample was analyzed by HPLC method 2.
Percent of the administered dose (% AD) for parent drug and each metabolite at each collection period=(% of the total radioactivity in the sample attributed to the metabolite)*(total radioactivity expressed as % of the administered dose, recovered during the corresponding collection period).
Microgram equivalents/g for parent drug or metabolite at each collection period (% radioactivity for each metabolite)*(total μg equivalents/g during the corresponding collection period).
Liver homogenates were pooled for each time point for both dose groups by proportional mixing according to the weight of the samples from individual animals. The pooled samples were extracted and prepared for HPLC analysis as described above. The abundance of metabolites was determined as a % of the administered dose and as μg equivalent/g. The data are presented in Table 54, Table 55, Table 56 and Table 57, respectively. Metabolites R^1, R^8 and R^9 were characterized based on retention time.

[1] = group 1 (IV dose) pooled liver, 2 h
[2] = group 1 (IV dose) pooled liver, 2 h (Table 56)
[3] = group 1 (IV dose) pooled liver, 6 h
[4] = group 1 (IV dose) pooled liver, 6 h (Table 56)
[5] = group 1 (IV dose) pooled liver, 24 h
[6] = group 1 (IV dose) pooled liver, 24 h (Table 56)
[7] = iv, 50 mg/kg, group 1 (IV dose) pooled liver, 2 h, read-out: liver concentration as μg equivalents/g
[8] = iv, 50 mg/kg, group 1 (IV dose) pooled liver, 6 h, read-out: liver concentration as μg equivalents/g
[9] = iv, 50 mg/kg, group 1 (IV dose) pooled liver, 24 h, read-out: liver concentration as μg equivalents/g
[10] = rat liver, IV dose, 2, 6 and 24 h
[11] = rat liver, IV dose, 2 h (Group 1A)
[12] = rat liver, IV dose, 6 h (Group 1B)
[13] = rat liver, PO dose, 2, 6 and 24 h
[14] = group 2 (PO dose) pooled liver, 2 h
[15] = group 2 (PO dose) pooled liver, 6 h
[16] = group 2 (PO dose) pooled liver, 24 h

Percent of Dose, Liver 24 h (IV) | % AD [1] [% AD] | % HPLC (percent of HPLC peak area in the sample extract) [1] [%] | % HPLC (percent of HPLC peak area in the sample extract) [2] [%] | % AD [3] [% AD] | % HPLC (percent of HPLC peak area in the sample extract) [3] [%] | % HPLC (percent of HPLC peak area in the sample extract) [4] [%] | % AD [5] [% AD] | % HPLC (percent of HPLC peak area in the sample extract) [5] [%] | % HPLC (percent of HPLC peak area in the sample extract) [6] [%] | concentration at 2 h [7] [ng/g] | concentration at 6 h [8] [ng/g] | concentration at 24 h [9] [ng/g] | % of the total radioactivity in liver [10] | liver metabolite, % of the administered dose [11] [% AD] | liver metabolite, % of the administered dose [12] [% AD] | liver metabolite, % of the administered dose (rat liver, IV dose, 24 h) [% AD] | % of the total radioactivity in liver [13] | Structure (SMILES) | other results
1.05% of Dose | 9.73 | 62.6 | 62.6 | 6.39 | 63.1 | 63.1 | 1.05 | 59.9 | 59.9 | 129000 | 86200 | 13900 | 60-63% | 9.7 | 6.4 | 1.1 | not detected | C[C@@]1(O)[C@H](O)[C@@H](COP(=O)(O)O)O[C@H]1n1cnc2c(=O)[nH]c(N)nc21 [Compound 5, [(2R)-2-methyl-β-D-ribofuranosyl]guanine 5′-monophosphate] | –
0.29% of Dose | 3.35 | 21.6 | 21.6 | 2.04 | 20.1 | 20.1 | 0.29 | 16.2 | 16.2 | 44400 | 27500 | 3770 | 16-22% | 3.4 | 2.0 | 0.29 | 15-46% | C[C@@]1(O)[C@H](O)[C@@H](COP(=O)(O)OP(=O)(O)O)O[C@H]1n1cnc2c(=O)[nH]c(N)nc21 [Compound 6, [(2R)-2-methyl-β-D-ribofuranosyl]guanine 5′-diphosphate] | Percent of Dose, Liver 24 h (Oral): 0.08% of Dose; % AD [14]: 0.04 % AD; % HPLC (percent of HPLC peak area in the sample extract) [14]: 22.6%; % HPLC (percent of HPLC peak area in the sample extract) (group 2 (PO dose) pooled liver, 2 h (Table 57)): 22.6%; % AD [15]: 0.06 % AD; % HPLC (percent of HPLC peak area in the sample extract) [15]: 15.0%; % HPLC (percent of HPLC peak area in the sample extract) (group 2 (PO dose) pooled liver, 6 h (Table 57)): 15.0%; % AD [16]: 0.08 % AD; % HPLC (percent of HPLC peak area in the sample extract) [16]: 46.1%; % HPLC (percent of HPLC peak area in the sample extract) (group 2 (PO dose) pooled liver, 24 h (Table 57)): 46.1%; concentration at 2 h (po, 100 mg/kg, group 2 (PO dose) pooled liver, 2 h, read-out: liver concentration as μg equivalents/g): 1150 ng/g; concentration at 6 h (po, 100 mg/kg, group 2 (PO dose) pooled liver, 6 h, read-out: liver concentration as μg equivalents/g): 1550 ng/g; concentration at 24 h (po, 100 mg/kg, group 2 (PO dose) pooled liver, 24 h, read-out: liver concentration as μg equivalents/g): 1880 ng/g; concentration at 2 h (po, 100 mg/kg, rat liver, PO dose, 2 h, read-out: liver metabolite concentration): 1100 ng/g; concentration at 6 h (po, 100 mg/kg, rat liver, PO dose, 6 h, read-out: liver metabolite concentration): 1600 ng/g; concentration at 24 h (po, 100 mg/kg, rat liver, PO dose, 24 h, read-out: liver metabolite concentration): 1900 ng/g; liver metabolite, % of the administered dose (rat liver, IV dose, 24 h, listed as diphosphate): 0.3 % AD; liver metabolite, % of the administered dose (rat liver, PO dose, 2 h): 0.04 % AD; liver metabolite, % of the administered dose (rat liver, PO dose, 6 h): 0.06 % AD; liver metabolite, % of the administered dose (rat liver, PO dose, 24 h): 0.08 % AD
– | 0.05 | 0.29 | 0.29 | 0.04 | 0.35 | 0.35 | – | – | – | 600 | 480 | – | – | 0.05 | 0.04 | – | – | C[C@@]1(O)[C@H](O)[C@@H](COP(=O)(O)OP(=O)(O)OP(=O)(O)O)O[C@H]1n1cnc2c(=O)[nH]c(N)nc21 [Compound 7, [(2R)-2-methyl-β-D-ribofuranosyl]guanine 5′-triphosphate] | concentration at 2 h (iv, 50 mg/kg, rat liver, IV dose, 2 h (Group 1A), read-out: liver metabolite concentration): 600 ng/g; concentration at 6 h (iv, 50 mg/kg, rat liver, IV dose, 6 h (Group 1B), read-out: liver metabolite concentration): 480 ng/g
